Experimental data from patent US7662767B2, “Polynucleotide intercalator interceptors and inhibitors” (Materials Evolution and Development USA, Inc., priority 2000, dated 2010).
Values joined by “and” are separate entries in the source; they are usually repeats but may differ in a detail not shown here. Equal entries are not always repeated. “Also recorded” adds a separate entry of the source. Where two headings read alike, the source gives them in different places.

How the values were obtained:
[1] = AO-AO, AO [20 μM], Kapuscinski & Kimmel, 1993, cited from earlier work
[2] = Optical titration (absorbance) of acridine orange with xanthines/purines, Kassoc from delta absorbance; type: binding; conditions: for K ± S.D.: AO-CAF, Absorbance, AO [10 μM], CAF [1-5000 μM], this study; for enhancement of the ability of theophylline to complex AO: Kassoc relative to theophylline; for Kassoc ± S.E.: binding affinity between acridine orange (10 μM) and compound, 5 mM HEPES pH 7.0, 25±1° C., 0 = no measurable association detected
Description: A red spectral shift in the optical adsorption maximum of AO upon the addition of a particular xanthine, indicates the possibility of a complex being formed between the two compounds. Spectral shifts can be measured by optical titrations.
Optical titrations (serial additions of various xanthines to a solution of AO) were performed on a Beckman DU-600 Scanning Spectrophotometer (Beckman Instrument Co., New York, N.Y.) using a 3 mL (1-cm light path) quartz cuvette containing 2.0 mL of a […]. The DU600 Spectrophotometer was blanked with 2 mL of a pH 7.0 buffered 5 mM HEPES solution over the full range of wavelengths to be scanned prior to sample analysis. This reduced the need to subtract the background absorbance from the HEPES buffer. Optical absorbance scans were performed over a wavelength range preferably from 400 nm to 550 nm. […] The 10 μM AO solution was scanned before the start of each titration series to quantitatively monitor any changes in the absorbance spectrum. Optical absorbance experiments were performed using aliquots varying in volume from 1:L to 20:L taken from prepared xanthine stock solutions (5 mM to 50 mM) and titrated into the cuvette containing 2.0 mL of the 10 μM AO solution. The solution in the cuvette was then thoroughly mixed by 10 seconds of shaking before scanning. All titrations were performed at room temperature (25±1° C.). The absorbance spectra were measured in 1 nm intervals and stored in digital form. Digitized scan data was converted to a Lotus Spreadsheet file (*.wk1) using a conversion program supplied by the manufacturer (Beckman Instruments Inc.) then imported into a Microsoft Excel 97™ Workbook file (*.xls) and saved in this format for further analysis. Spectral data for each titration was combined and expressed in graphic form (Excel™) (X-axis=wavelength in nm; Y-axis=optical absorbance) for each xanthine titrated with AO. […] Adjusted absorption values were plotted and compared to spectra from non-complexed AO. This allowed for the visualization of an expected spectral shift that occurs when AO forms a complex with a xanthine.
The association constant, Kassoc, may be used to analyze the binding ability of modified xanthines to DNA intercalators. The association constant may be calculated based upon a differential shift in the absorbance spectrum. When the presence of the xanthine caused a spectral shift, a difference absorbance plot or delta plot was obtained. Delta plots were constructed by subtracting the adjusted absorption spectrum of AO in the presence of the xanthine from the initial spectrum of AO alone at each wavelength and for each aliquot of the titration. This procedure allowed for the creation of difference absorption values or delta absorption values. Delta absorption values obtained in this manner (Y-axis=delta absorption) were plotted against wavelength in nm (X-axis). The appearance of a single isobestic point was indicative of only two species present in solution, AO, and an AO complex. Graphic representation allowed for the selection of a wavelength with the maximum sensitivity for determining the association constant. This wavelength was characterized by the greatest positive response in delta absorbance values observed upon addition of each aliquot of xanthine to the AO solution. The AO-xanthine association or binding constant was determined by the following equilibrium expression: I+X≡IX EQUATION 1: […]
Where I represents the intercalator (AO), X represents the interceptor molecule (xanthine), and IX represents the AO-xanthine complex, respectively.

[3] = test system: chicken erythrocyte nuclear chromatin; experiment: Quantified removal of intercalated AO from chicken erythrocyte smears, fluorescence plate reader; conditions: 100 mM xanthine, static, 10 seconds to two hours, AO 1 mM 10 sec stain, λex 485 nm, λem 530 nm
Description: Microscope slides (slides) coated with chicken erythrocytes were stained by placing the slide into a 50 ml beaker filled with a 1 mM solution of AO prepared in distilled water for approximately 10 seconds (static) followed by three successive 10 second rinses in distilled water before drying at room temperature. Care was taken to store all slides in the dark when not in use to avoid photobleaching. Stained slides were dried prior to being exposed to 50 ml of a 100 mM solution of either CAF or aminophylline (AM) for set time periods under static conditions. Exposure to the xanthine solution was followed by three 10-second rinses with distilled water and drying of the slides in the dark prior to fluorescence analysis. Control slides consisted of erythrocyte coated slides that were subsequently placed in only distilled water (no stain) prior to drying, blank slides (no erythrocytes) placed in AO staining solutions then dried served as negative controls, and erythrocyte coated cells stained with AO but exposed to only distilled water and not a xanthine solution served as positive control. The stained microscope slides were then attached by tape to a plastic frame (upside down 96-well plate cover) and fluorescence determined using a Perkin-Elmer Model HTS 7000 Bio Assay Reader with λex 485nm and λem 530 with the gain set at 40.
Distilled water served as solvent control (n=8).

[4] = Absorbance binding spectra of doxorubicin titrated with caffeine or chlorophyllin; conditions: 10 μM doxorubicin
[5] = Table 4-2, in parentheses under compound, taken from Table 2-1
[6] = Table 4-3, taken from Table 2-1

| SMILES | K ± S.D. ([1]; Absorbance (mathematical model)) | K ± S.D. ([1]; Absorbance plus NaCl 150 mM) | K ± S.D. [2] | K ± S.D. ([2]; listed as CAF-AO) | enhancement of the ability of theophylline to complex AO [2] | Kassoc ([2]; Table 2-2, Kassoc value with acridine orange (this report)) | Kassoc [2, 5] | Kassoc [2, 6] | Kassoc ± S.E. [2] | Kassoc ± S.E. ([2]; listed as CAF) | Kassoc ± S.E. ([2]; listed as CAF-AO) | Kassoc ± S.E. ([2]; listed as CAP) | reduction of fluorescence (removal of AO) versus time of exposure [3] | binding to doxorubicin [4] | Kassoc ± S.E. ([2]; listed as AM) | Kassoc ± S.E. ([2]; listed as aminophylline) | reduction of fluorescence (removal of AO) versus time of exposure ([3]; listed as AM) |
| --- | --- | --- | --- | --- | --- | --- | --- | --- | --- | --- | --- | --- | --- | --- | --- | --- | --- |
| CN(C)c1ccc2cc3ccc(N(C)C)cc3nc2c1.Cl [AO, 3,6-bis[dimethylamino]acridine hydrochloride] | 29,100 M^−1 | 42,500 M^−1 | – | – | – | – | – | – | – | – | – | – | – | – | – | – | – |
| Cn1c(=O)c2c(ncn2C)n(C)c1=O [1,3,7-trimethyl xanthine (caffeine), 1,3,7-trimethyl xanthine] | – | – | 255 ± 5 M⁻¹ and 256 ± 5 M⁻¹ | ~250 M⁻¹ | 63% | 256 M⁻¹ | (256) M^−1 | 256 M⁻¹ | 255.7 ± 4.8^c M^−1 | 256 M⁻¹ | 256 M⁻¹ | ~256 M⁻¹ | followed first order decay kinetics | binds with doxorubicin | – | – | – |
| Cn1c(=O)c2[nH]cnc2n(C)c1=O.NCCN [1,3-dimethyl xanthine ethylenediamine] | – | – | – | – | 280% | – | (596) M^−1 | 596 M⁻¹ | 596.2 ± 6.5 M⁻¹ | – | – | – | – | – | 596 M⁻¹ | 596.2 M⁻¹ and 596 M⁻¹ | followed first order decay kinetics; also recorded: more rapid removal of AO from the nuclear chromatin |
